One data set relates to FGF21. As to the kind of experiment: FGF21 mRNA expression in HepG2 cells. The format is cell-based, human. On the procedure: Compounds of the invention were evaluated for their ability to upregulate FgF21 mRNA expression in HepG2 cells. FgF21 (Fibroblast growth factor 21) is a potent insulin sensitizer and stimulatory signal for fat oxidation. (Li, H. et al. Diabetes, 61, 797, 2012; […]., The American Journal of Clinical Nutrition, 91, […], 2010). The assay protocol was as follows. HepG2 cells were cultured in DMEM and 10% FBS. […] We treated cells with the indicated compounds for two hours, and lysed and extracted mRNA using the Rneasy kit (Qiagen). […] Quantitative PCR was performed using Taqman probes specific for human FGF21 and human actin.

For data set [1], the system named is INS-1E cells. Put plainly: Palmitate and/or glucose-induced beta-cell apoptosis, caspase-3/7 activation. The format is cell-based, rat. The settings on record: 0.5 mM palmitate and/or 25 mM glucose, 48 hours. On the procedure: Compounds of the invention were evaluated for their ability to suppress cytokine-induced beta-cell apoptosis and palmitate and/or glucose-induced beta-cell apoptosis by inhibition of HDAC3. Assay protocols were as follows: Cell culture and reagents. […] Recombinant IL-1β, IFN-γ, and TNF-α were purchased from R&D Systems. Palmitate, D-glucose and fatty acids-free low endotoxin BSA were purchased from Sigma. Palmitate was solubilized in 90% ethanol, heated to 60° C. and used 1:100 dilution in media. Caspase-Glo 3/7 was from Promega and 3-(4,5-dimethylthiazol-2-yl)-2,5-diphenyltetrazolium bromide (MTT) was from Calbiochem. Antibodies for HDAC1, HDAC2, HDAC3, pJNK, JNK cleaved caspase-9 and secondary horseradish-peroxidase conjugated goat anti-mouse and anti-rabbit antibodies were from Cell Signaling. Antibody for beta-actin was from Sigma and antibody against CHOP (GADD153) from Abcam. HDAC inhibitors were purchased from Selleck Chemicals or synthesized in-house. Primers were from Integrated DNA Technologies, High Capacity cDNA RT kit and SYBR green master mix were purchased from Applied Biosystems. […] Luminescence was measured after a two-hour incubation using an Envision plate reader (PerkinElmer). […] Apoptosis was measured by caspase-3/7 activation using a commercially available kit. […]

In a further data set the test system is dopaminergic signaling. Put plainly: Amphetamine-induced hyperactivity (AIH). It is filed as in vivo. The following applies: mice, 10 mg/kg once daily, data 18-24 h after the 7th dose. On the procedure:
Compounds of the invention were evaluated for their ability to influence dopaminerigic signaling according to the following procedure. Mice were dosed once daily with 10 mg/kg of compound 1. Data collected 18-24 h after the 7th dose. Amphetamine-induced hyperactivity (AIH) was examined in eight identical open-field chambers (16.5″×16″×12″; AccuScan Instruments, Columbus, Ohio). Activity was detected by infrared beam breaks and recorded automatically by VersaMax software (AccuScan). Daily sessions were automatically binned in 5 minute intervals (VersaDat; AccuSacn) for statistical analysis. AIH was run over three consecutive days as follows:
Day 1: Habituation: Mice were placed into the open-field for 20 minutes and then removed for a saline injection. Mice were placed back into the open-field for an additional 30 minutes, at which point the mice were returned to their home cage.
Day 2: Baseline Motor Activity: This phase was run identically to Day 1, with the exception that the second day lasted for one hour (20 minutes pre-injection; 40 minutes post-injection).
Day 3: Amphetamine Challenge: Mice were placed in the open-field. After 20 minutes, mice were removed and challenged with amphetamine, and placed back in the open-field for 80 minutes.
**Note: All HDAC inhibitor treatments occurred 18-25 hours prior to behavioral testing. […]

Data set [2] concerns HDACs 1, 2, 3, 4, 5, 6, 7, 8, and 9. Put plainly: HDAC selectivity panel (Caliper), isoform selectivity. The settings on record: from IC50 values.
Data set [3] deals with T1, HDAC2 (Homo sapiens (Human), UniProt Q92769). As to the kind of experiment: Caliper HDAC enzymatic endpoint assay, HDAC2. The format is biochemical.
T1 sequence (Q92769 whole entry): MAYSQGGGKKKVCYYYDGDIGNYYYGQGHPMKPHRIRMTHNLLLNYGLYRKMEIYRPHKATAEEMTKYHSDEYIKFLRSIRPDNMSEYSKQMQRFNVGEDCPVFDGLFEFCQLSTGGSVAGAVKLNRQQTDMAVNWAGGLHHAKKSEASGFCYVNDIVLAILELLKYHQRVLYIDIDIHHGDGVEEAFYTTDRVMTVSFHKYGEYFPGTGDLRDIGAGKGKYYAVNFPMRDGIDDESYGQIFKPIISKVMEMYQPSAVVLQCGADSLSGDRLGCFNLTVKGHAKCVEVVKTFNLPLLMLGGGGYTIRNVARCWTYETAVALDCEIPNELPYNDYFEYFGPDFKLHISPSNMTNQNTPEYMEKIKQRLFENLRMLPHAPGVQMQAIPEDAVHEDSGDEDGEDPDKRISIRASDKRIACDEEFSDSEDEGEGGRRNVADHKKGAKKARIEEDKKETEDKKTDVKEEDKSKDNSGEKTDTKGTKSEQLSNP
Description: Substrate A was prepared as 2 mM in DMSO. Its final concentration in the assay for HDACs 1, 2, 3, 6 is 2 μM.
Below is the HDAC and Substrate concentration used in this assay.
Data set [4] concerns the target T1, HDAC2. Put plainly: Kinetics of the inhibition of HDAC2.
Data set [5] concerns INS-1E cells. Put plainly: Insulin assay (glucose-stimulated insulin secretion and insulin content, ELISA). It is filed as cell-based, rat. The following applies: 10 μM, palmitate and 25 mM glucose, 24 h. How it is done:
INS-1E cells (20,000 cells/well) were seeded in 96-well plates in 100 uL complete medium. After overnight incubation media was removed and cells were exposed to 100 uL medium/well with the indicated concentrations of palmitate, glucose, HDAC inhibitors and/or vehicle. […] Cells were subsequently incubated with KRBH buffer containing 2 mM or 16 mM glucose for 1 hour. Supernatants were collected for measurement of insulin. For measuring insulin content, cells were washed in PBS and lysed using Passive Lysis Buffer. Insulin was measured with a rat insulin ELISA kit (Alpco). Total insulin content was normalized to total protein (Bradford assay). Each condition was assayed in biological duplicates. Specifically, HDAC3 inhibition is shown to preserve the glucose-induced insulin secretory function. […] FIGS. 13A to 13B are a series of bar graphs. […] Glucose-stimulated insulin secretion and total insulin content were assessed by ELISA. Data are presented as fold to CTRL+SEM, n=3-5, ns=not significant, *p<0.05, **p<0.01, ***p<0.001 vs. CTRL, #p<0.05, ##p<0.01, ###p<0.001 vs. respective treatment. ANOVA with Tukey- or Dunnet-corrected test, or Student's t-test (insulin content).

Another data set concerns the target HDAC9 (Homo sapiens (Human), UniProt Q9UKV0). Put plainly: Caliper HDAC enzymatic endpoint assay, HDAC9. The format is biochemical. The following applies: Table 2C; read-out: HDAC9 IC50 after 0 hr preincubation.
Another data set concerns the target HDAC4 (Homo sapiens (Human), UniProt P56524). As to the kind of experiment: Caliper HDAC enzymatic endpoint assay, HDAC4. The format is biochemical. The settings on record: Table 2C; read-out: HDAC4 IC50 after 0 hr preincubation.

Several values for one entry are separate records, joined by “and”; a condition that tells them apart may be missing. Identical values can stand only once. Like-named read-outs stand apart in the source and are kept apart here.

Results on one molecule are retold here after patent US11377423B2, “Inhibitors of histone deacetylase” (The Broad Institute, Inc., priority 2012, dated 2022).

One may read the IC50 as the midpoint of a concentration-inhibition curve. Usually Ki stands for a measure of affinity in units of concentration, obtained from inhibition or displacement. By koff is commonly meant the first-order rate constant of dissociation. Read a low koff as a long-lived complex.

Sequence of HDAC9 (Q9UKV0 whole entry): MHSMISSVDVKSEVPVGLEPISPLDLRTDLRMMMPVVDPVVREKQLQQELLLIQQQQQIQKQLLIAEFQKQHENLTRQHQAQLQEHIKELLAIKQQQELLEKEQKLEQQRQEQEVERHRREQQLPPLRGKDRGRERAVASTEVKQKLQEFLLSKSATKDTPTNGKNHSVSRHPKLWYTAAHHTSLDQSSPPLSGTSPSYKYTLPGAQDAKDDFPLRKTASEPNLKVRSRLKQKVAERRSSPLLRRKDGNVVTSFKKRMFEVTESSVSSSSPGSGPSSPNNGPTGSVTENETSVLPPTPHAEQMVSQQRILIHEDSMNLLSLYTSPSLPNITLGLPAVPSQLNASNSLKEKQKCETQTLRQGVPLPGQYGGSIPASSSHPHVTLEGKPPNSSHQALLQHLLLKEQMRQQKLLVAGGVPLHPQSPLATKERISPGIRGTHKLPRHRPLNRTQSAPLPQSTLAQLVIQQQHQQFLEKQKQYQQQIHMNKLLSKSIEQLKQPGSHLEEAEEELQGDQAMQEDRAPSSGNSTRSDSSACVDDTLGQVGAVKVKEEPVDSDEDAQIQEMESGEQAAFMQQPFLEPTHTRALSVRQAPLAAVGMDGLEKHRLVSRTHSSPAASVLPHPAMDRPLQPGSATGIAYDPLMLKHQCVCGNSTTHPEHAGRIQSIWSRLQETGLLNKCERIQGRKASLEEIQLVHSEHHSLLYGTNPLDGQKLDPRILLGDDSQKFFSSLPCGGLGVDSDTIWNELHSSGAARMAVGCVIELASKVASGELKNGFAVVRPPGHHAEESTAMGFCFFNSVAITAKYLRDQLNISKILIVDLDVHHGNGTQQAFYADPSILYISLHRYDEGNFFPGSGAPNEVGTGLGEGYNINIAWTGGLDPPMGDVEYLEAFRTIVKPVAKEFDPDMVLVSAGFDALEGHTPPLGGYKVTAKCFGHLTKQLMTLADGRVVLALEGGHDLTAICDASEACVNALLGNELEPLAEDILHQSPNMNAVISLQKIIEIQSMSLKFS
Sequence of HDAC4 (P56524 whole entry): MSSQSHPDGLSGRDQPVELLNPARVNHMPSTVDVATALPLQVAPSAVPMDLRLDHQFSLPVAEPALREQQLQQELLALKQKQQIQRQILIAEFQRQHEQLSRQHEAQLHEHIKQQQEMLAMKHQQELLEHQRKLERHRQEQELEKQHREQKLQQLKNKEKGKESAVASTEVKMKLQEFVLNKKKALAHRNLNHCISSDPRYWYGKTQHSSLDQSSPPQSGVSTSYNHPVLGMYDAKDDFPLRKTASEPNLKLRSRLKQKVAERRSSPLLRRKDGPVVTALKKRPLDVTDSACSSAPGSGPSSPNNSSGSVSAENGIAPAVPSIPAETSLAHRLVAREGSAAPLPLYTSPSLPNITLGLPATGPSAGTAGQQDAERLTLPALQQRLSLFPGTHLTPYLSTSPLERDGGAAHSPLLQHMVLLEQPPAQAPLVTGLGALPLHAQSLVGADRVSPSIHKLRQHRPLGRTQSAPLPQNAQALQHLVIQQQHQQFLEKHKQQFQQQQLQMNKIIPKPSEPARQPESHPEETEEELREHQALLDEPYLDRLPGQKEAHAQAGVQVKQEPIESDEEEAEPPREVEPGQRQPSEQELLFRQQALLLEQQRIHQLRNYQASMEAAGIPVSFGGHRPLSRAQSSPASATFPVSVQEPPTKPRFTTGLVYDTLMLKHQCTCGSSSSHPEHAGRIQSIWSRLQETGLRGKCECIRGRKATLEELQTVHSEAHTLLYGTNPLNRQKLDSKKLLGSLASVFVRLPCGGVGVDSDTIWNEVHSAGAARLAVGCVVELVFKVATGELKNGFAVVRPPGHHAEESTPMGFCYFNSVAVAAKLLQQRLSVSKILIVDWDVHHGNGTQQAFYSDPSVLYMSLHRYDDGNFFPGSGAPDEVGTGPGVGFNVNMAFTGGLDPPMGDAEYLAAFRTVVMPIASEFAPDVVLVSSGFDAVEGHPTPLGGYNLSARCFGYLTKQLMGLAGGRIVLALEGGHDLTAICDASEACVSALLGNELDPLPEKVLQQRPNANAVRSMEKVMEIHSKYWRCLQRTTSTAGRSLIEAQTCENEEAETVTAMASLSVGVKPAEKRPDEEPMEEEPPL
Description for HDAC4: (§1) The Caliper HDAC Assay Buffer (acronym HAB, 1 liter) was prepared as follows:
(§2) Substrate B was prepared as 2 mM in 100% DMSO. Its final concentration in the assay for HDACs 4, 5, 7, 8, 9 is 2 μM.
(§3) LBH was used as quench inhibitor to stop the reaction at the end point.
IC50 values are in micromolar.
Description for HDAC9: as §1, §2, §3
IC50 values are in micromolar.

Turning to `CC(=O)Nc1ccc(C(=O)Nc2ccc(F)cc2N)cc1` [Compound 1, 4-acetamido-N-(2-amino-4-fluorophenyl)benzamide], the “FGF21 expression (FGF21/actin), dose response” value in the data set with FGF21 was “dose response increases in FGF21 expression”. The “FGF21 mRNA expression” value in the data set on FGF21 (20 μM, two hours) was “upregulates FGF21 mRNA expression”. Further, the “suppression of palmitate and/or glucose-induced beta-cell apoptosis (caspase activity)” value in the data set on INS-1E cells [1] is “as effective at suppressing palmitate and/or glucose-induced beta-cell apoptosis as CI-994”. For the same molecule, the “effect on amphetamine-induced hyperactivity” value in the data set on dopaminergic signaling is reported as “potentiates”. In data set [2], the “HDAC isoform selectivity” value is reported as “HDAC3 selective compound”. Besides, the concentration for half-maximal inhibition (IC50) at HDAC2 [3] (read-out: HDAC2 IC50 3 h Prein, Table 2, 3 h preincubation) was 1.42 µM; on HDAC2 [3] (read-out: HDAC2 IC50 3 h Preinc, Table 2A, 3 h preincubation), 1.42 µM; at HDAC2 [3] (read-out: HDAC2 IC50 @3 hr, 3 hr preincubation) it was 1.42 µM; at HDAC9 it was greater than 33 µM; on HDAC4, greater than 33 µM. The Ki was roughly 6.3 µM on HDAC2 [4] and 6.3 µM at HDAC2 [4] (HDAC2). Further, the koff on HDAC2 [4] and at HDAC2 [4] (HDAC2) was 0.000867 s⁻¹ each time. The Kon on HDAC2 [4] (HDAC2) was 0.0082 min^−1, uM^−1 and ~0.0082 min^−1, uM^−1. Moreover, the “type of binding to HDAC2 (words)” value at HDAC2 [4] (HDAC2) is on record as “fast off inhibitor”; on HDAC2 [4] (HDAC2, listed as compound 1), “slow on/fast off rates”. The molecule also gave a T1/2 on HDAC2 [4] (HDAC2 residence) of 13 min. Besides, in the data set with INS-1E cells [5], the glucose-stimulated insulin release result is given as “restoring insulin release”. Also, in the data set with INS-1E cells [5], the insulin content result was “restoring insulin content”.
